The target of assay [1] is T1, Homeodomain-interacting protein kinase 4 (Homo sapiens) (UniProt Q8NE63).
T1 sequence (whole entry): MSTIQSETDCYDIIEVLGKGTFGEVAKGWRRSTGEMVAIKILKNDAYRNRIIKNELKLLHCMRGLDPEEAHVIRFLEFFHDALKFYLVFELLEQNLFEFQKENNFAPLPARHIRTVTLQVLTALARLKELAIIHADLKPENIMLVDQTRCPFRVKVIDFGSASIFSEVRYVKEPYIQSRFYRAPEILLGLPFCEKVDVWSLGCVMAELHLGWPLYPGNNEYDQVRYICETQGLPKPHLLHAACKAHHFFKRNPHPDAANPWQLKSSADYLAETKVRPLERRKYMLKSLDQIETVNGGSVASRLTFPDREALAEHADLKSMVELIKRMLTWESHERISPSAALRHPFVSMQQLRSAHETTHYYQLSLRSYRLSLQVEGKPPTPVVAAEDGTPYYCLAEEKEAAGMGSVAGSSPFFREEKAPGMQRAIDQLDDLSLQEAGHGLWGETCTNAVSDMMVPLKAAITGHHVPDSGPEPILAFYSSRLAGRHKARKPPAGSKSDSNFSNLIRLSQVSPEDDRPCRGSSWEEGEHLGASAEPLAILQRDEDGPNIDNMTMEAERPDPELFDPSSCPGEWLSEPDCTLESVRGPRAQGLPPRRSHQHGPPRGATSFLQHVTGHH
In words: Selectivity interaction (KinomeScan (DiscoverX)) EUB0000595a HIPK4. To be noted: at 10 µM.

Assay [2] addresses Mitogen-activated protein kinase 1 (Homo sapiens, UniProt P28482). In words: Selectivity interaction (KinomeScan (DiscoverX)) EUB0000607a MAPK1. To be noted: at 10 µM.
The next assay concerns the target Focal adhesion kinase 1 (Homo sapiens, UniProt Q05397). In words: Selectivity interaction (ActivX KiNativ screen (kinase selectivity in THP-1 cell lysates)) EUB0000639a PTK2. To be noted: lysate, at 5 µM. The class given is subcellular.
Assay [3] has as its target Mitogen-activated protein kinase 4 (Homo sapiens) (UniProt P31152). In words: Selectivity interaction (Ambit KINOMEscan and KiNATiv profiling in Jurkat cells) EUB0000090b MAPK4. It counts as cell-based. The note with it: at 1 µM.
In assay [4] the target is Tyrosine-protein kinase JAK1 (Homo sapiens, UniProt P23458).
Assay [5] addresses T2, Serine/threonine-protein kinase Sgk2 (Homo sapiens) (UniProt Q9HBY8).
T2 sequence (whole entry): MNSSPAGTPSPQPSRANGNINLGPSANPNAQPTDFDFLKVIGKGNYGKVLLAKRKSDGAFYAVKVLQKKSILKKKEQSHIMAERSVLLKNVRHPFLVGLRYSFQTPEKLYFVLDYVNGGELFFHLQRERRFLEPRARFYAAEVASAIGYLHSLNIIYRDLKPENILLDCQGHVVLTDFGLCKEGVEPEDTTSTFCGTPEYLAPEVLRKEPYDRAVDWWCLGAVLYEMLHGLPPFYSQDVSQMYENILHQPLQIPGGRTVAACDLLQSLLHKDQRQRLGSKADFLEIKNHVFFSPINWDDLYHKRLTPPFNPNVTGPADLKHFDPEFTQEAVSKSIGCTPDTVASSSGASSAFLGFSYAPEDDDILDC
In words: Selectivity interaction (KinomeScan (DiscoverX)) EUB0001049a SGK2. To be noted: at 1 µM.

Assay [6] deals with T3, Cytoplasmic tyrosine-protein kinase BMX (Homo sapiens) (UniProt P51813).
T3 sequence (whole entry): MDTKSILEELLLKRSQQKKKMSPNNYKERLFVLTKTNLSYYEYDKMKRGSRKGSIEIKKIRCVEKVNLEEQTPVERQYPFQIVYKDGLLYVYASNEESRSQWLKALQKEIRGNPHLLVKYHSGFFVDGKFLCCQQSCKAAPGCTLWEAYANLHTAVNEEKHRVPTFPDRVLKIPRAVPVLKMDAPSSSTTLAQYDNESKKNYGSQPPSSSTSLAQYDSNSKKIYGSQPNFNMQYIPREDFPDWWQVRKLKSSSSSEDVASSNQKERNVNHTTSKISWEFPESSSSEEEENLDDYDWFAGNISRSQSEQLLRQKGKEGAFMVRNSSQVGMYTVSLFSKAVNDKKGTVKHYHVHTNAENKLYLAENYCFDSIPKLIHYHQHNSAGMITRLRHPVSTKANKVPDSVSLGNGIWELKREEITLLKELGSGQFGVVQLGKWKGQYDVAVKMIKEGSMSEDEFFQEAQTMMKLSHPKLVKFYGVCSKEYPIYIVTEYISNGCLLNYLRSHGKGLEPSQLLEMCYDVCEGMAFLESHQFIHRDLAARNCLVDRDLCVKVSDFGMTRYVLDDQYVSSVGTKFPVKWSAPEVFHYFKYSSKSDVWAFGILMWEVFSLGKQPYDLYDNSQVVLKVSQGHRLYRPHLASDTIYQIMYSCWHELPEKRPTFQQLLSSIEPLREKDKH
In words: Selectivity interaction (KinomeScan (DiscoverX)) EUB0000618a BMX. The note with it: at 10 µM.

The target of assay [7] is T4, Gamma-aminobutyric acid receptor subunit alpha-1 (Homo sapiens) (UniProt P14867).
T4 sequence (whole entry): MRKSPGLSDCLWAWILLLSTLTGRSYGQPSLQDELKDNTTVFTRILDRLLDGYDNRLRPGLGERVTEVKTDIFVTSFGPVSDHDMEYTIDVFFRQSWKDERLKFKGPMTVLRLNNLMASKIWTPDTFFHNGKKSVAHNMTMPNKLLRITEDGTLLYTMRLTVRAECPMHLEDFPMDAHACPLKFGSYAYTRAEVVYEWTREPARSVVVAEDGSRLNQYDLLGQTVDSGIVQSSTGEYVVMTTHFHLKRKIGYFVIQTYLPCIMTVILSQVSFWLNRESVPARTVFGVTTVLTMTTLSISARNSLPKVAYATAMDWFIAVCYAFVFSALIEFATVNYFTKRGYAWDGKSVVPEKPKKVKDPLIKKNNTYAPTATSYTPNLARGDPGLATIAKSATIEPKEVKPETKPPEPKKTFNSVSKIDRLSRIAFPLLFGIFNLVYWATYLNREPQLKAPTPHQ
In words: Selectivity interaction (Panel of non-epigenetic targets (kinases, GPCRs, ion channels, and transporters, Eurofins) ) EUB0000271b GABRA1. To be noted: at 1 µM.

The target of assay [8] is RAF proto-oncogene serine/threonine-protein kinase (Homo sapiens) (UniProt P04049). In words: Selectivity interaction (KinomeScan (DiscoverX)) EUB0001079a RAF1. To be noted: at 1 µM.
Assay [9] deals with Mitogen-activated protein kinase kinase kinase 14 (Homo sapiens) (UniProt Q99558). In words: Selectivity interaction (KinomeScan (DiscoverX)) EUB0000229b MAP3K14. The note with it: at 10 µM.

What is called IC50 is the concentration needed to halve the response being measured. A higher IC50 goes with weaker potency in that assay.

Chain of Mitogen-activated protein kinase kinase kinase 14 (Homo sapiens) (Q99558 whole entry, looked up): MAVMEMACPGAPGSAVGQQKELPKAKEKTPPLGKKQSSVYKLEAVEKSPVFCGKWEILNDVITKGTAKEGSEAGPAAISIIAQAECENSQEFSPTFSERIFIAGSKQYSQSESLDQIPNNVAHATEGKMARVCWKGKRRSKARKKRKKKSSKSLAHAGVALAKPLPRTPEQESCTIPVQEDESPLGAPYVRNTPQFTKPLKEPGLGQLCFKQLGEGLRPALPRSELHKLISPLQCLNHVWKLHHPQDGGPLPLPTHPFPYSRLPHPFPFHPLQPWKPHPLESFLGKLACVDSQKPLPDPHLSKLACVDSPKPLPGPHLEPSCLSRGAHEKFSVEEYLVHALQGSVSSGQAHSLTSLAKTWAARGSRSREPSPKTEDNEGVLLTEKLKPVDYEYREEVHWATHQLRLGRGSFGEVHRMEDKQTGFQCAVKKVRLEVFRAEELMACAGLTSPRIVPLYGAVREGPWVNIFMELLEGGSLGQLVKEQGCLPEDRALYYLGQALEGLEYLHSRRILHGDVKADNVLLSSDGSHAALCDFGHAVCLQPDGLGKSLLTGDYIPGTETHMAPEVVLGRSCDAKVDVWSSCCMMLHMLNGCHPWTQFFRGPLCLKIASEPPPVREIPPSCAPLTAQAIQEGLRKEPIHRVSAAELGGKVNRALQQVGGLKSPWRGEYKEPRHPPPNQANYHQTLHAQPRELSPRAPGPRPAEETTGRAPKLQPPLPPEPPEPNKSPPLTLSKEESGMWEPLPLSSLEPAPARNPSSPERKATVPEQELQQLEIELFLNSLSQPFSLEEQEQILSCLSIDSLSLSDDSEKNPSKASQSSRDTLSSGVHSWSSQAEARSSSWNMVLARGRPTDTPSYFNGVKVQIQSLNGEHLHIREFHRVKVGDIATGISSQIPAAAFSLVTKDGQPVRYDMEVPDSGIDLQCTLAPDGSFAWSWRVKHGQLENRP
Chain of Mitogen-activated protein kinase 1 (P28482 whole entry): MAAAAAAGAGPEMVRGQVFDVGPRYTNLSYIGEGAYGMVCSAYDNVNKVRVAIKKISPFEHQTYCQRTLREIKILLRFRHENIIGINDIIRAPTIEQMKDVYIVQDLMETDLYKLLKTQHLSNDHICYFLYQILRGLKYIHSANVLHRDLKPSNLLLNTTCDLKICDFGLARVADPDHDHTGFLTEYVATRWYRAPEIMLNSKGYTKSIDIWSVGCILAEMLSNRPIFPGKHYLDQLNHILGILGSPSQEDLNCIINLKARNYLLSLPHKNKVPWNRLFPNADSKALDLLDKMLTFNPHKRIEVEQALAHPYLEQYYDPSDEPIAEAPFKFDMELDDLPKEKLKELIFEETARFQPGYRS
Chain of Focal adhesion kinase 1 (Q05397 2-1052 limits assumed): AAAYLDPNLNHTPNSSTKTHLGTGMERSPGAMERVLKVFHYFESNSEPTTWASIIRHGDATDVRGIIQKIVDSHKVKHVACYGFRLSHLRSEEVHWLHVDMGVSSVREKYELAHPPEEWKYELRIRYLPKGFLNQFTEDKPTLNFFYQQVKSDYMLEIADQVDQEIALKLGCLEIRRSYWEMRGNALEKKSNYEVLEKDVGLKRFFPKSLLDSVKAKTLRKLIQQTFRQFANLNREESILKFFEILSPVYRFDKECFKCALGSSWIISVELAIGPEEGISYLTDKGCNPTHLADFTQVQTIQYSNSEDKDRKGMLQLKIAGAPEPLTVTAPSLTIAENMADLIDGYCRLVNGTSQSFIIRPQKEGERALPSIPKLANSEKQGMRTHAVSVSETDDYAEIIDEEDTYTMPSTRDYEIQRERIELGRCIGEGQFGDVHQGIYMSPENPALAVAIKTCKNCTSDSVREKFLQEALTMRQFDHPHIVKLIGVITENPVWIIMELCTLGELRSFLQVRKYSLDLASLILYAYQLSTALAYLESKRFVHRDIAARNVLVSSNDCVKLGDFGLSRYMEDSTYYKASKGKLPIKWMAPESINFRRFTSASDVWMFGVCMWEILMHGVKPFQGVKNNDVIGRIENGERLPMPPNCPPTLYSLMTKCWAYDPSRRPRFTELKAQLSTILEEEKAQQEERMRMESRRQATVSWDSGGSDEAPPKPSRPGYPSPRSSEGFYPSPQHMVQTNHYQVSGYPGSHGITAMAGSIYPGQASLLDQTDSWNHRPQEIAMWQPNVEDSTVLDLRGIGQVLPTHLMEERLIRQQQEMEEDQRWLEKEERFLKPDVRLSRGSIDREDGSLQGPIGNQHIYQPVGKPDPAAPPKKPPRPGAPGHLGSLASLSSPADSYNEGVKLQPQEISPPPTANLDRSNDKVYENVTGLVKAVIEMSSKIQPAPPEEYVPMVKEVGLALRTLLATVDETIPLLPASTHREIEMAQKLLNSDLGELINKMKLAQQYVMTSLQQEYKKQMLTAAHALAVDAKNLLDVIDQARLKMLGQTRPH
Chain of Tyrosine-protein kinase JAK1 (P23458 whole entry): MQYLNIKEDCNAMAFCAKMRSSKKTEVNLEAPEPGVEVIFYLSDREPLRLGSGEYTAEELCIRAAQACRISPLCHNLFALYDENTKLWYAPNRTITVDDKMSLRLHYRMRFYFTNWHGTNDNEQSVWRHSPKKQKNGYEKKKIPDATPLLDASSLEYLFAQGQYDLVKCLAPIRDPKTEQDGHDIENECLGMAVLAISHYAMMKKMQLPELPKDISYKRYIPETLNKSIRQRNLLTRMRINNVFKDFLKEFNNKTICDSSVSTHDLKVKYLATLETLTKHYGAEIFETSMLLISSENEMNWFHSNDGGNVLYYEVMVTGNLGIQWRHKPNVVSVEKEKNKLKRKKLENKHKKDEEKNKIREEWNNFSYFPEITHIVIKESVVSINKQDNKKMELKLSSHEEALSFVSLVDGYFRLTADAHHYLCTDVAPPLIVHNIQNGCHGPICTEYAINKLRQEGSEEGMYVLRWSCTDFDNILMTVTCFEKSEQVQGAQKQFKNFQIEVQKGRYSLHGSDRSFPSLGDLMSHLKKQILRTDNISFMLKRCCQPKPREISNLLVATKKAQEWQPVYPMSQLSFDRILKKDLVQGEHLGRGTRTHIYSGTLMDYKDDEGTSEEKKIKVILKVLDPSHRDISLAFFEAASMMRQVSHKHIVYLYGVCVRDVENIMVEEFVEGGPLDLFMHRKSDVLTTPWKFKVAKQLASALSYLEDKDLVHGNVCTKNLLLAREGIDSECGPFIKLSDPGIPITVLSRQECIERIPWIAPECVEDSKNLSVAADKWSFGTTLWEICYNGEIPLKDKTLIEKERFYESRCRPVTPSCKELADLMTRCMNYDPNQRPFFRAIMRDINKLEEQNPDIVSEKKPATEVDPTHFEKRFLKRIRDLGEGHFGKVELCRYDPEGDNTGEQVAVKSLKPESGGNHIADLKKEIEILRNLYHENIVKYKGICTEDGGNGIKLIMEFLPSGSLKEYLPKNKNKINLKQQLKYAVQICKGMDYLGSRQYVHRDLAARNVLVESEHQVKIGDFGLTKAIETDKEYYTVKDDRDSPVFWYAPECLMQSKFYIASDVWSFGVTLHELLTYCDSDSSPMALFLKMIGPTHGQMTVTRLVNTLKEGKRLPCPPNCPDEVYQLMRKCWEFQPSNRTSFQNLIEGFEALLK
Chain of Mitogen-activated protein kinase 4 (Homo sapiens) (P31152 whole entry): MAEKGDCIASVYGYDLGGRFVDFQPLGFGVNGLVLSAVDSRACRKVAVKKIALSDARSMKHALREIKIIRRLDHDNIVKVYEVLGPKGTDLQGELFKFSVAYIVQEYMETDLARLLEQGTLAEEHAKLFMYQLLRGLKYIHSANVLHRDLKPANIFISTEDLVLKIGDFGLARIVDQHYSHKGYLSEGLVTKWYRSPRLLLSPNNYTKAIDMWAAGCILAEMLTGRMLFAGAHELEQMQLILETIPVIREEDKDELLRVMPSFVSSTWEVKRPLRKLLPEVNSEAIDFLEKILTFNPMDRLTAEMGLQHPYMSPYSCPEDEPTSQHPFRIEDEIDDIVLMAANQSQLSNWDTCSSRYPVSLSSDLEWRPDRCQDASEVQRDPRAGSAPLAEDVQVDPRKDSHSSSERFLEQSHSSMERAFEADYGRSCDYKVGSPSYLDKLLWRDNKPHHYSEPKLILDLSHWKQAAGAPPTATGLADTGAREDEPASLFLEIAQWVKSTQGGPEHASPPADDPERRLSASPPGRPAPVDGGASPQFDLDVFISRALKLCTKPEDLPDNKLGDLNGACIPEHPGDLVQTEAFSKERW
Chain of RAF proto-oncogene serine/threonine-protein kinase (Homo sapiens) (P04049 whole entry): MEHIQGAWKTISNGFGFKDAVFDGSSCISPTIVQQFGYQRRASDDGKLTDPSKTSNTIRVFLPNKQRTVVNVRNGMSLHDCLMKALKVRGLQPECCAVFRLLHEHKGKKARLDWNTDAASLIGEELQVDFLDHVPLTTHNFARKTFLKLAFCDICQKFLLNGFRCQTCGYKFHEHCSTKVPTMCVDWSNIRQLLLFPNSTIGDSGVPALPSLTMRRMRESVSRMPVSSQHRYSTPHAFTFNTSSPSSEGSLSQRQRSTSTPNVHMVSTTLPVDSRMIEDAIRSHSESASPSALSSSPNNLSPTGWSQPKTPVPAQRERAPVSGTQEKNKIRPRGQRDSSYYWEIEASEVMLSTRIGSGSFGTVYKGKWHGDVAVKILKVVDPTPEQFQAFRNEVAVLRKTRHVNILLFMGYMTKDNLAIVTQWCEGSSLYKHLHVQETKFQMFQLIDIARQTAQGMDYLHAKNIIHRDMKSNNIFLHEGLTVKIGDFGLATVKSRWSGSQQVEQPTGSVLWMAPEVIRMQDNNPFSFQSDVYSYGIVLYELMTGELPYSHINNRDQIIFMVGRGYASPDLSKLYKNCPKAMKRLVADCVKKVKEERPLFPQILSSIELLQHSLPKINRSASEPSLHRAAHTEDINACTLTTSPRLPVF

In assay [1], `COCC(=O)NC/C=C/c1ccc2ncnc(Nc3ccc(Oc4ccc(C)nc4)c(C)c3)c2c1` [CP-724714] showed a % of control of 95%.

In assay [2], `CNC(=O)Nc1ccc(-c2nc(N3CC4CCC(C3)O4)c3cnn(C4CCC5(CC4)OCCO5)c3n2)cc1` returned a % of control of 87%.

Turning to `CC[C@@H]1[C@H](F)C(=O)N[C@@H]1COc1nccc2cc(C(N)=O)c(OC)cc12` [ZIMLOVISERTIB], at Focal adhesion kinase 1, the % of inhibition is -9.4%.

As to `CN(C)C/C=C/C(=O)Nc1ccc(C(=O)N2CCCC(Nc3ncc(Cl)c(-c4c[nH]c5ccccc45)n3)C2)cc1` (stereo not given), the % of control in [3] amounted to 64%.

In turn, `CCc1cccc(CC)c1NC(=O)c1nn(C)c2c1CCc1cnc(Nc3ccc(C(=O)NC4CCN(C)CC4)cc3OC(F)(F)F)nc1-2` yielded an IC50 in assay [4] greater than 10 µM.

Molecule `COc1cc(Nc2nc(C)cc(-c3cnn4nc(OC)ccc34)n2)cc(C(F)(F)F)c1` had a % of control in [5] of 78%.

Molecule `O[C@H]1CC[C@H](Nc2ncc3nc(Nc4c(F)cc(F)cc4F)n([C@H]4CCOC4)c3n2)CC1` yielded a % of control in assay [6] of 100%.

Consider `Cc1cc(C)cc([C@@H]2c3cc(C)ccc3NC(=O)CN2C(=O)c2ccc(Br)s2)c1`, for which the % of inhibition in [7] was -9%.

Regarding `Nc1cnc(N2CCc3cc(S(=O)(=O)Nc4c(F)cc(Cl)cc4F)cc(N4CCCC4=O)c32)nc1` [TP-020n], the % of control in assay [8] is 79%.

`COc1cc(N(C)c2ccnc3ccc(C(F)(F)F)cc23)cc(OC)c1OC` gave a % binding in [9] of 100%.

Source of the values: ChEMBL document CHEMBL5465560, “Selectivity Literature for EUbOPEN Chemogenomic Library” (2024).
